The record followed here is US12448400B2, “KRAS G12D modulating compounds” (priority 2023, dated 2025).

A word on the IC50: it is the concentration needed to halve the response being measured. One may read the EC50 as the midpoint of the concentration-response curve.

Molecules are shown by their SMILES. Like-named read-outs stand apart in the source and are kept apart here.

For one test, the target named is GDP-loaded KRAS G12D (Homo sapiens, UniProt P01116, G12D). Put plainly: KRAS G12D (GDP) biochemical assay, TR-FRET probe displacement. The format is binding. Conditions: 0.5 nM enzyme, 30 min pre-incubation, 2 h incubation, TR-FRET ratio; read-out: G12D IC50. As for the experimental part:
Example A. KRAS G12D (GDP) Biochemical Assay
Compounds were tested for binding to GDP-loaded KRAS G12D in a 384-well assay format using a TR-FRET probe displacement assay in buffer consisting of 50 mM Hepes (pH 7.4), 150 mM NaCl, 5 mM MgCl2 and 0.005% Tween-20. […] Compounds were serially diluted (1:3) in DMSO. The LabCyte ECHO Acoustic dispenser system was used to pre-spot the assay plates (384-well Non-Binding Surface plates, Corning, Catalog #3824) with 50 nL of compound. The compounds were pre-incubated with 5 μL of 2× final enzyme concentration for 30 minutes before adding 5 μL of 2× final concentration of Eu-streptavidin and TR-FRET probe (10 μL final reaction volume). The plates were incubated at room temperature for 2 hours before measuring TR-FRET ratio on the Envision plate reader. IC50 values were defined as the compound concentration that causes a 50% decrease in TR-FRET ratio and were calculated using a sigmoidal dose-response model to generate curve fits.

In a further test the test system is GP2D (KRAS G12D) cells. In words: 2D cell viability assay (CellTiter-Glo). The format is cell-based. The following applies: GP2D cells, 4 days, CellTiter-Glo luminescence, read-out: G12D 2D EC50. As for the experimental part:
Example B. 2D Cell Viability Assay
Compounds were tested in a 384-well format for their ability to inhibit the viability of GP2D (KRAS G12D) cells in 2D assays. Compounds were serially diluted (1:3) in DMSO. The LabCyte ECHO Acoustic dispenser system was used to pre-spot assay plates with 200 nL of test molecule per well. 1000 cells/well (40 μL volume per well) in RPMI medium with 10% FBS, and Penicillin-Streptomycin-Glutamine were plated in pre-spotted 384-well plates (Greiner, Catalog #781076) on the BioTEK EL406 liquid dispenser with a 5 μL dispensing cassette (BioTek 7170011). The plates were incubated at 37° C., 5% CO2 for 4 days before addition of CellTiter-Glo (CTG) reagent and measurement of luminescence signal. EC50 values were defined as the compound concentration that causes a 50% decrease in luminescence signal and were calculated using a sigmoidal dose-response model to generate curve fits.
(Cellular ATP, detected with luciferase, serves as a proxy for viable cell number.)

Sequence of GDP-loaded KRAS G12D (P01116 1-188 isoform P01116-2 G12D): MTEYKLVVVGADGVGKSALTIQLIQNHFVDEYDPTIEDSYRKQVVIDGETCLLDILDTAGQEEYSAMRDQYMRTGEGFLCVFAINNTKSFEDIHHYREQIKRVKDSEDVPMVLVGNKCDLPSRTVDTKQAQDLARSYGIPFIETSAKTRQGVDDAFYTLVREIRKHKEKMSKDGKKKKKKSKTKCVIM

With `C#Cc1c(F)ccc2cc(O)cc(-c3c(F)c4c5c(nc(OC[C@@]67CCCN6C[C@H](F)C7)nc5c3F)N3C[C@H]5CC[C@H](N5)[C@H]3CCC4)c12` (atropisomer, axis not shown; (aR)) [Example 28-P, (R)-4-((1S,4R,15aR)-10,12-difluoro-8-(((2R,7aS)-2-fluorotetrahydro-1H-pyrrolizin-7a(5H)-yl)methoxy)-2,3,4,5,13,14,15,15a-octahydro-1H-1,4-epiminoazepino[1′,2′:1,8]azocino[2,3,4-de]quinazolin-11-yl)-5-ethynyl-6-fluoronaphthalen-2-ol], the IC50 at GDP-loaded KRAS G12D was 0.07 nM. For the same compound, in the test on GP2D (KRAS G12D) cells (96 h), the EC50 came out at 0.13 nM.
Regarding `C#Cc1c(F)ccc2cc(O)cc(-c3c(F)c4c5c(nc(OC[C@]6(C)CN(C)CC[C@@H]6C(F)F)nc5c3F)N3C[C@H]5CC[C@H](N5)[C@H]3CCC4)c12` (atropisomer, axis not shown; (aR)) [Example 78-P, (R)-4-((1S,4R,15aR)-8-(((3S,4S)-4-(difluoromethyl)-1,3-dimethylpiperidin-3-yl)methoxy)-10,12-difluoro-2,3,4,5,13,14,15,15a-octahydro-1H-1,4-epiminoazepino[1′,2′:1,8]azocino[2,3,4-de]quinazolin-11-yl)-5-ethynyl-6-fluoronaphthalen-2-ol], the IC50 on GDP-loaded KRAS G12D turned out to be 0.04 nM. Further, the EC50 in the test on GP2D (KRAS G12D) cells (96 h) was determined as 0.14 nM.
For `C#Cc1c(F)ccc2cc(O)cc(-c3nc4c5c(nc(OC[C@@]67CCCN6C[C@H](F)C7)nc5c3F)N3C[C@H]5CC[C@@H]([C@H]3CCC4)N5Cc3oc(=O)oc3CC)c12` [Example 40, 4-ethyl-5-(((6aR,7S,10R)-2-(8-ethynyl-7-fluoro-3-hydroxynaphthalen-1-yl)-1-fluoro-13-(((2R,7aS)-2-fluorotetrahydro-1H-pyrrolizin-7a(5H)-yl)methoxy)-5,6,6a,7,8,9,10,11-octahydro-4H-3,11a,12,14,15-pentaaza-7,10-methanocyclohepta[4,5]cycloocta[1,2,3-de]naphthalen-15-yl)methyl)-1,3-dioxol-2-one], the EC50 in the test on GP2D (KRAS G12D) cells (96 h) came out at 0.22 nM.
Take `C#Cc1c(F)ccc2cc(O)cc(-c3nc4c5c(nc(OC[C@@]67CCCN6C[C@H](F)C7)nc5c3F)N3C[C@H]5CC[C@@H]([C@H]3CCC4)N5Cc3oc(=O)oc3CCC)c12` [Example 41, 4-(((6aR,7S,10R)-2-(8-ethynyl-7-fluoro-3-hydroxynaphthalen-1-yl)-1-fluoro-13-(((2R,7aS)-2-fluorotetrahydro-1H-pyrrolizin-7a(5H)-yl)methoxy)-5,6,6a,7,8,9,10,11-octahydro-4H-3,11a,12,14,15-pentaaza-7,10-methanocyclohepta[4,5]cycloocta[1,2,3-de]naphthalen-15-yl)methyl)-5-propyl-1,3-dioxol-2-one]: the half-maximal effective concentration (EC50) with GP2D (KRAS G12D) cells (96 h) was determined as 0.18 nM.
Take `C#Cc1c(F)ccc2cc(OCc3oc(=O)oc3C(C)(C)C)cc(-c3nc4c5c(nc(OC[C@@]67CCCN6C[C@H](F)C7)nc5c3F)N3C[C@H]5CC[C@H](N5)[C@@H]3[C@@H](C)C4)c12` [Example 67, 4-(tert-butyl)-5-(((5-ethynyl-6-fluoro-4-((5S,5aS,6S,9R)-1-fluoro-12-(((2R,7aS)-2-fluorotetrahydro-1H-pyrrolizin-7a(5H)-yl)methoxy)-5-methyl-4,5,5a,6,7,8,9,10-octahydro-3,10a,11,13,14-pentaaza-6,9-methanonaphtho[1,8-ab]heptalen-2-yl)naphthalen-2-yl)oxy)methyl)-1,3-dioxol-2-one]: in the test on GP2D (KRAS G12D) cells (96 h), the EC50 was found to be 1.3 nM.
Regarding `C#Cc1c(F)ccc2cc(O)cc(-c3nc4c5c(nc(OCC67CCCN6C(COC(C(F)(F)F)(C(F)(F)F)C(F)(F)F)CC7)nc5c3F)N3CC5CCC(C3CC4)N5Cc3oc(=O)oc3C)c12` [Example 68, 4-(((8aR,9S,12R)-5-(8-ethynyl-7-fluoro-3-hydroxynaphthalen-1-yl)-4-fluoro-2-(((3S,7aS)-3-(((1,1,1,3,3,3-hexafluoro-2-(trifluoromethyl)propan-2-yl)oxy)methyl)tetrahydro-1H-pyrrolizin-7a(5H)-yl)methoxy)-7,8,8a,9,10,11,12,13-octahydro-1,3,6,13a,14-pentaaza-9,12-methanonaphtho[1,8-ab]heptalen-14-yl)methyl)-5-methyl-1,3-dioxol-2-one], in the test on GP2D (KRAS G12D) cells, the EC50 stood at 0.65 nM.
Consider `C#Cc1c(F)ccc2cc(N)cc(-c3nc4c5c(nc(OC[C@@]67CCCN6C[C@H](F)C7)nc5c3F)N3C[C@H]5CC[C@@H]([C@H]3CCC4)N5Cc3oc(=O)oc3-c3ccccc3)c12` [Example 69, 4-(((6aR,7S,10R)-2-(3-amino-8-ethynyl-7-fluoronaphthalen-1-yl)-1-fluoro-13-(((2R,7aS)-2-fluorotetrahydro-1H-pyrrolizin-7a(5H)-yl)methoxy)-5,6,6a,7,8,9,10,11-octahydro-4H-3,11a,12,14,15-pentaaza-7,10-methanocyclohepta[4,5]cycloocta[1,2,3-de]naphthalen-15-yl)methyl)-5-phenyl-1,3-dioxol-2-one], for which the EC50 with GP2D (KRAS G12D) cells (96 h) came out at 0.48 nM.
With `C#Cc1c(F)ccc2cc(NCc3oc(=O)oc3C)cc(-c3nc4c5c(nc(OC[C@@]67CCCN6C[C@H](F)C7)nc5c3F)N3C[C@H]5CC[C@@H]([C@H]3CCC4)N5Cc3oc(=O)oc3C)c12` [Example 70, 4-(((5-ethynyl-6-fluoro-4-((6aR,7S,10R)-1-fluoro-13-(((2R,7aS)-2-fluorotetrahydro-1H-pyrrolizin-7a(5H)-yl)methoxy)-15-((5-methyl-2-oxo-1,3-dioxol-4-yl)methyl)-5,6,6a,7,8,9,10,11-octahydro-4H-3,11a,12,14,15-pentaaza-7,10-methanocyclohepta[4,5]cycloocta[1,2,3-de]naphthalen-2-yl)naphthalen-2-yl)amino)methyl)-5-methyl-1,3-dioxol-2-one], the 50% effective concentration (EC50) in the test with GP2D (KRAS G12D) cells (96 h) was 0.31 nM.
For `C#Cc1c(F)ccc2cc(O)cc(-c3nc4c5c(nc(OC[C@@]67CCCN6C[C@H](F)C7)nc5c3F)N3C[C@H]5CC[C@@H]([C@H]3CCC4)N5Cc3oc(=O)oc3-c3ccccc3)c12` [Example 72, 4-(((6aR,7S,10R)-2-(8-ethynyl-7-fluoro-3-hydroxynaphthalen-1-yl)-1-fluoro-13-(((2R,7aS)-2-fluorotetrahydro-1H-pyrrolizin-7a(5H)-yl)methoxy)-5,6,6a,7,8,9,10,11-octahydro-4H-3,11a,12,14,15-pentaaza-7,10-methanocyclohepta[4,5]cycloocta[1,2,3-de]naphthalen-15-yl)methyl)-5-phenyl-1,3-dioxol-2-one], the half-maximal effective concentration (EC50) in the test with GP2D (KRAS G12D) cells (96 h) is 0.11 nM.
Consider `C#Cc1c(F)ccc2cc(O)cc(-c3nc4c5c(nc(OC[C@]6(C)CN(C)CC[C@@H]6C(F)F)nc5c3F)N3C[C@H]5CC[C@@H]([C@H]3CCC4)N5Cc3oc(=O)oc3C)c12` [Example 74, 4-(((6aR,7S,10R)-13-(((3S,4S)-4-(difluoromethyl)-1,3-dimethylpiperidin-3-yl)methoxy)-2-(8-ethynyl-7-fluoro-3-hydroxynaphthalen-1-yl)-1-fluoro-5,6,6a,7,8,9,10,11-octahydro-4H-3,11a,12,14,15-pentaaza-7,10-methanocyclohepta[4,5]cycloocta[1,2,3-de]naphthalen-15-yl)methyl)-5-methyl-1,3-dioxol-2-one], for which the EC50 with GP2D (KRAS G12D) cells (96 h) turned out to be 0.06 nM.
Same read-out and setting: the value for `[2H]C([2H])([2H])N1CC[C@H](C(F)F)[C@](C)(C([2H])([2H])Oc2nc3c4c(nc(-c5cc(O)cc6ccc(F)c(C#C)c56)c(F)c4n2)CCC[C@@H]2[C@@H]4CC[C@H](CN32)N4Cc2oc(=O)oc2C)C1` [Example 75, 4-(((6aR,7S,10R)-13-(((3S,4S)-4-(difluoromethyl)-3-methyl-1-(methyl-d3)piperidin-3-yl)methoxy-d2)-2-(8-ethynyl-7-fluoro-3-hydroxynaphthalen-1-yl)-1-fluoro-5,6,6a,7,8,9,10,11-octahydro-4H-3,11a,12,14,15-pentaaza-7,10-methanocyclohepta[4,5]cycloocta[1,2,3-de]naphthalen-15-yl)methyl)-5-methyl-1,3-dioxol-2-one] was 0.08 nM; that for `C#Cc1c(F)ccc2cc(N)cc(-c3nc4c5c(nc(OC[C@]6(C)CN(C)CC[C@@H]6C(F)F)nc5c3F)N3C[C@H]5CC[C@@H]([C@H]3CCC4)N5Cc3oc(=O)oc3C)c12` [Example 76, 4-(((6aR,7S,10R)-2-(3-amino-8-ethynyl-7-fluoronaphthalen-1-yl)-13-(((3S,4S)-4-(difluoromethyl)-1,3-dimethylpiperidin-3-yl)methoxy)-1-fluoro-5,6,6a,7,8,9,10,11-octahydro-4H-3,11a,12,14,15-pentaaza-7,10-methanocyclohepta[4,5]cycloocta[1,2,3-de]naphthalen-15-yl)methyl)-5-methyl-1,3-dioxol-2-one] was 0.89 nM.
